What was measured:
Type in all cases: functional
Conditions in all cases: read-out: Activity
BT-549 = experiment: Cytotoxicity against human BT-549 cells assessed as cell viability at 10 uM incubated for 48 hrs by sulforhodamine B assay relative to control
PC-3 = experiment: Cytotoxicity against human PC-3 cells assessed as cell viability at 10 uM incubated for 48 hrs by sulforhodamine B assay relative to control
UO-31 = experiment: Cytotoxicity against human UO-31 cells assessed as cell viability at 10 uM incubated for 48 hrs by sulforhodamine B assay relative to control
TK-10 = experiment: Cytotoxicity against human TK-10 cells assessed as cell viability at 10 uM incubated for 48 hrs by sulforhodamine B assay relative to control
SN12C = experiment: Cytotoxicity against human SN12C cells assessed as cell viability at 10 uM incubated for 48 hrs by sulforhodamine B assay relative to control
CAKI-1 = experiment: Cytotoxicity against human CAKI-1 cells assessed as cell viability at 10 uM incubated for 48 hrs by sulforhodamine B assay relative to control
ACHN = experiment: Cytotoxicity against human ACHN cells assessed as cell viability at 10 uM incubated for 48 hrs by sulforhodamine B assay relative to control
786-0 = experiment: Cytotoxicity against human 786-0 cells assessed as cell viability at 10 uM incubated for 48 hrs by sulforhodamine B assay relative to control
SK-OV-3 = experiment: Cytotoxicity against human SK-OV-3 cells assessed as cell viability at 10 uM incubated for 48 hrs by sulforhodamine B assay relative to control
NCI/ADR-RES = experiment: Cytotoxicity against human NCI/ADR-RES cells assessed as cell viability at 10 uM incubated for 48 hrs by sulforhodamine B assay relative to control
OVCAR-8 = experiment: Cytotoxicity against human OVCAR-8 cells assessed as cell viability at 10 uM incubated for 48 hrs by sulforhodamine B assay relative to control
OVCAR-5 = experiment: Cytotoxicity against human OVCAR-5 cells assessed as cell viability at 10 uM incubated for 48 hrs by sulforhodamine B assay relative to control
OVCAR-4 = experiment: Cytotoxicity against human OVCAR-4 cells assessed as cell viability at 10 uM incubated for 48 hrs by sulforhodamine B assay relative to control
OVCAR-3 = experiment: Cytotoxicity against human OVCAR-3 cells assessed as cell viability at 10 uM incubated for 48 hrs by sulforhodamine B assay relative to control
IGROV-1 = experiment: Cytotoxicity against human IGROV-1 cells assessed as cell viability at 10 uM incubated for 48 hrs by sulforhodamine B assay relative to control
UACC-62 = experiment: Cytotoxicity against human UACC-62 cells assessed as cell viability at 10 uM incubated for 48 hrs by sulforhodamine B assay relative to control
UACC-257 = experiment: Cytotoxicity against human UACC-257 cells assessed as cell viability at 10 uM incubated for 48 hrs by sulforhodamine B assay relative to control
SK-MEL-5 = experiment: Cytotoxicity against human SK-MEL-5 cells assessed as cell viability at 10 uM incubated for 48 hrs by sulforhodamine B assay relative to control
MDA-MB-435 = experiment: Cytotoxicity against human MDA-MB-435 cells assessed as cell viability at 10 uM incubated for 48 hrs by sulforhodamine B assay relative to control
M14 = experiment: Cytotoxicity against human M14 cells assessed as cell viability at 10 uM incubated for 48 hrs by sulforhodamine B assay relative to control
Malme-3M = experiment: Cytotoxicity against human Malme-3M cells assessed as cell viability at 10 uM incubated for 48 hrs by sulforhodamine B assay relative to control
CCRF-CEM = experiment: Cytotoxicity against human CCRF-CEM cells assessed as cell viability at 10 uM incubated for 48 hrs by sulforhodamine B assay relative to control
K562 = experiment: Cytotoxicity against human K562 cells assessed as cell viability at 10 uM incubated for 48 hrs by sulforhodamine B assay relative to control
MOLT-4 = experiment: Cytotoxicity against human MOLT-4 cells assessed as cell viability at 10 uM incubated for 48 hrs by sulforhodamine B assay relative to control
RPMI-8226 = experiment: Cytotoxicity against human RPMI-8226 cells assessed as cell viability at 10 uM incubated for 48 hrs by sulforhodamine B assay relative to control
EKVX = experiment: Cytotoxicity against human EKVX cells assessed as cell viability at 10 uM incubated for 48 hrs by sulforhodamine B assay relative to control
HOP-62 = experiment: Cytotoxicity against human HOP-62 cells assessed as cell viability at 10 uM incubated for 48 hrs by sulforhodamine B assay relative to control
HOP-92 = experiment: Cytotoxicity against human HOP-92 cells assessed as cell viability at 10 uM incubated for 48 hrs by sulforhodamine B assay relative to control
NCI-H23 = experiment: Cytotoxicity against human NCI-H23 cells assessed as cell viability at 10 uM incubated for 48 hrs by sulforhodamine B assay relative to control
NCI-H322M = experiment: Cytotoxicity against human NCI-H322M cells assessed as cell viability at 10 uM incubated for 48 hrs by sulforhodamine B assay relative to control
NCI-H522 = experiment: Cytotoxicity against human NCI-H522 cells assessed as cell viability at 10 uM incubated for 48 hrs by sulforhodamine B assay relative to control
COLO 205 = experiment: Cytotoxicity against human COLO 205 cells assessed as cell viability at 10 uM incubated for 48 hrs by sulforhodamine B assay relative to control
HCC 2998 = experiment: Cytotoxicity against human HCC 2998 cells assessed as cell viability at 10 uM incubated for 48 hrs by sulforhodamine B assay relative to control
HCT-116 = experiment: Cytotoxicity against human HCT-116 cells assessed as cell viability at 10 uM incubated for 48 hrs by sulforhodamine B assay relative to control
KM12 = experiment: Cytotoxicity against human KM12 cells assessed as cell viability at 10 uM incubated for 48 hrs by sulforhodamine B assay relative to control
SW-620 = experiment: Cytotoxicity against human SW-620 cells assessed as cell viability at 10 uM incubated for 48 hrs by sulforhodamine B assay relative to control
SF-268 = experiment: Cytotoxicity against human SF-268 cells assessed as cell viability at 10 uM incubated for 48 hrs by sulforhodamine B assay relative to control
SF-295 = experiment: Cytotoxicity against human SF-295 cells assessed as cell viability at 10 uM incubated for 48 hrs by sulforhodamine B assay relative to control
SNB-19 = experiment: Cytotoxicity against human SNB-19 cells assessed as cell viability at 10 uM incubated for 48 hrs by sulforhodamine B assay relative to control
SNB-75 = experiment: Cytotoxicity against human SNB-75 cells assessed as cell viability at 10 uM incubated for 48 hrs by sulforhodamine B assay relative to control
U-251 = experiment: Cytotoxicity against human U-251 cells assessed as cell viability at 10 uM incubated for 48 hrs by sulforhodamine B assay relative to control

**Q.** With `O=C(NCCCNc1nccc(-c2c(-c3cccc(F)c3)nc3sccn23)n1)C1CCCCC1` as the compound, how does the viability at 10 µM (BT-549) read?
**A.** 78.6%

**Q.** What about the viability at 10 µM (PC-3) of the same compound?
**A.** 73.9%

**Q.** And the viability at 10 µM (UO-31)?
**A.** 41%

**Q.** And the viability at 10 µM (TK-10)?
**A.** 78.9%

**Q.** And the viability at 10 µM (SN12C)?
**A.** 67.3%

**Q.** What about the viability at 10 µM (CAKI-1) of the same compound?
**A.** 55.7%

**Q.** What about the viability at 10 µM (ACHN) of the same compound?
**A.** 45.3%

**Q.** And the viability at 10 µM (786-0)?
**A.** 62.1%

**Q.** What about the viability at 10 µM (SK-OV-3) of the same compound?
**A.** 87.7%

**Q.** And the viability at 10 µM (NCI/ADR-RES)?
**A.** 72.6%

**Q.** And the viability at 10 µM (OVCAR-8)?
**A.** 71.1%

**Q.** And the viability at 10 µM (OVCAR-5)?
**A.** 105%

**Q.** And the viability at 10 µM (OVCAR-4)?
**A.** 85.9%

**Q.** And the viability at 10 µM (OVCAR-3)?
**A.** 82.1%

**Q.** What about the viability at 10 µM (IGROV-1) of the same compound?
**A.** 37.5%

**Q.** What about the viability at 10 µM (UACC-62) of the same compound?
**A.** 36.4%

**Q.** And the viability at 10 µM (UACC-257)?
**A.** 95.2%

**Q.** And the viability at 10 µM (SK-MEL-5)?
**A.** 52.9%

**Q.** What about the viability at 10 µM (MDA-MB-435) of the same compound?
**A.** 50.5%

**Q.** And the viability at 10 µM (M14)?
**A.** 57.6%

**Q.** And the viability at 10 µM (Malme-3M)?
**A.** 74.7%

**Q.** And the viability at 10 µM (CCRF-CEM)?
**A.** 73.2%

**Q.** What about the viability at 10 µM (K562) of the same compound?
**A.** 65.4%

**Q.** What about the viability at 10 µM (MOLT-4) of the same compound?
**A.** 69.5%

**Q.** And the viability at 10 µM (RPMI-8226)?
**A.** 80%

**Q.** And the viability at 10 µM (EKVX)?
**A.** 80.8%

**Q.** What about the viability at 10 µM (HOP-62) of the same compound?
**A.** 98.2%

**Q.** And the viability at 10 µM (HOP-92)?
**A.** 105%

**Q.** What about the viability at 10 µM (NCI-H23) of the same compound?
**A.** 75.7%

**Q.** What about the viability at 10 µM (NCI-H322M) of the same compound?
**A.** 86%

**Q.** And the viability at 10 µM (NCI-H522)?
**A.** 77.6%

**Q.** And the viability at 10 µM (COLO 205)?
**A.** 49.8%

**Q.** What about the viability at 10 µM (HCC 2998) of the same compound?
**A.** 90.5%

**Q.** What about the viability at 10 µM (HCT-116) of the same compound?
**A.** 49.3%

**Q.** What about the viability at 10 µM (KM12) of the same compound?
**A.** 84.5%

**Q.** What about the viability at 10 µM (SW-620) of the same compound?
**A.** 82.1%

**Q.** And the viability at 10 µM (SF-268)?
**A.** 80.2%

**Q.** What about the viability at 10 µM (SF-295) of the same compound?
**A.** 89.8%

**Q.** What about the viability at 10 µM (SNB-19) of the same compound?
**A.** 89.8%

**Q.** What about the viability at 10 µM (SNB-75) of the same compound?
**A.** 87.7%

**Q.** And the viability at 10 µM (U-251)?
**A.** 79.6%

**Q.** For `O=S(=O)(NCCNc1nccc(-c2c(-c3cccc(F)c3)nc3sccn23)n1)c1cccc(F)c1`, which viability at 10 µM (BT-549) is on record?
**A.** 81.5%

**Q.** And the viability at 10 µM (PC-3)?
**A.** 67.2%

**Q.** And the viability at 10 µM (UO-31)?
**A.** 30.2%

**Q.** What about the viability at 10 µM (TK-10) of the same compound?
**A.** 88%

**Q.** What about the viability at 10 µM (SN12C) of the same compound?
**A.** 55.3%

**Q.** What about the viability at 10 µM (CAKI-1) of the same compound?
**A.** 44.6%

**Q.** What about the viability at 10 µM (ACHN) of the same compound?
**A.** 39.9%

**Q.** And the viability at 10 µM (786-0)?
**A.** 63.9%

**Q.** What about the viability at 10 µM (SK-OV-3) of the same compound?
**A.** 95.8%

**Q.** And the viability at 10 µM (NCI/ADR-RES)?
**A.** 80.3%

**Q.** And the viability at 10 µM (OVCAR-8)?
**A.** 60.1%

**Q.** And the viability at 10 µM (OVCAR-5)?
**A.** 100%

**Q.** What about the viability at 10 µM (OVCAR-4) of the same compound?
**A.** 64.8%

**Q.** What about the viability at 10 µM (OVCAR-3) of the same compound?
**A.** 76.7%

**Q.** What about the viability at 10 µM (IGROV-1) of the same compound?
**A.** 24.6%

**Q.** What about the viability at 10 µM (UACC-62) of the same compound?
**A.** 56.2%

**Q.** And the viability at 10 µM (UACC-257)?
**A.** 104%

**Q.** What about the viability at 10 µM (SK-MEL-5) of the same compound?
**A.** 53.5%

**Q.** What about the viability at 10 µM (MDA-MB-435) of the same compound?
**A.** 41.9%

**Q.** What about the viability at 10 µM (M14) of the same compound?
**A.** 69.4%

**Q.** And the viability at 10 µM (Malme-3M)?
**A.** 108%

**Q.** What about the viability at 10 µM (CCRF-CEM) of the same compound?
**A.** 63.3%

**Q.** And the viability at 10 µM (K562)?
**A.** 48.6%

**Q.** What about the viability at 10 µM (MOLT-4) of the same compound?
**A.** 57.8%

**Q.** What about the viability at 10 µM (RPMI-8226) of the same compound?
**A.** 66.8%

**Q.** And the viability at 10 µM (EKVX)?
**A.** 72.1%

**Q.** And the viability at 10 µM (HOP-62)?
**A.** 83.5%

**Q.** And the viability at 10 µM (HOP-92)?
**A.** 88.2%

**Q.** And the viability at 10 µM (NCI-H23)?
**A.** 83.4%

**Q.** What about the viability at 10 µM (NCI-H322M) of the same compound?
**A.** 77.1%

**Q.** What about the viability at 10 µM (NCI-H522) of the same compound?
**A.** 75.8%

**Q.** And the viability at 10 µM (COLO 205)?
**A.** 45.1%

**Q.** And the viability at 10 µM (HCC 2998)?
**A.** 95.5%

**Q.** And the viability at 10 µM (HCT-116)?
**A.** 42.8%

**Q.** And the viability at 10 µM (KM12)?
**A.** 44.2%

**Q.** What about the viability at 10 µM (SW-620) of the same compound?
**A.** 75.8%

**Q.** And the viability at 10 µM (SF-268)?
**A.** 68.6%

**Q.** And the viability at 10 µM (SF-295)?
**A.** 80.6%

**Q.** And the viability at 10 µM (SNB-19)?
**A.** 73%

**Q.** And the viability at 10 µM (SNB-75)?
**A.** 80%

**Q.** And the viability at 10 µM (U-251)?
**A.** 60.7%
